From patent US9999664B2, “HIV-1 gp120 mini V3 loop and uses thereof” (The Scripps Research Institute, priority 2011, dated 2018)

Assays:
[1] = target: T1, plant lectin ConA (Canavalia ensiformis, UniProt P02866); experiment: Neoglycolipid microarray binding, ConA; details: biotinylated ConA at 0.5 μg/ml
T1 construct: purchased Vector
Procedure: (§1) The microarrays (designated N-glycan-related Array Set 1) consisted of NGLs prepared by reductive amination (70) or oxime ligation (71) (Table S5). These were robotically printed onto nitrocellulose-coated glass slides as described (72), each at two levels (2 and 5 fmol/spot) in duplicate. The binding assays (70) were performed at ambient temperature. The PGTs 127 and 128 were pre-complexed with biotinylated anti-human-IgG (Vector) at a 1:3 ratio, w/w, before applying onto the slides at a final concentration of 10 μg/ml. Biotinylated ConA (Vector) was tested at 0.5 μg/ml. Binding was detected with Alexa-Fluor 647 labelled streptavidin (Molecular Probes) at 1 μg/ml. Microarray data analysis was performed with dedicated software. Binding signals were oligosaccharide dose-related. Results at 5 fmol/spot with selected oligomannose NGLs (prepared by reductive amination) are in FIG. 9A, and the full data with the 50 NGLs are shown in Table S6. Included for comparison are the results with human 2G12 (Polymun Scientific) taken from an earlier experiment performed using a different version of microarrays (73). Antibody 2G12 was analyzed at 1:10000 dilution (without pre-complexation), and the binding was detected with biotinylated anti-human-IgG followed by Alexa-Fluor 647 labelled streptavidin.

[2] = test system: 2G12; details: 2G12 at 1:10000 dilution; earlier experiment, different version of the microarray; cited from earlier work
[3] = test system: PGT 128; experiment: Neoglycolipid microarray binding, PGT 128; details: PGT 128 at 10 μg/ml pre-complexed with biotinylated anti-human-IgG; 5 fmol/spot
Procedure: as §1

[4] = test system: PGT 127; experiment: Neoglycolipid microarray binding, PGT 127; details: PGT 127 at 10 μg/ml pre-complexed with biotinylated anti-human-IgG; 5 fmol/spot
Procedure: as §1

[5] = target: gp120 JR-FL (HIV-1 JR-FL); experiment: gp120 ELISA
[6] = target: gp120 BaL (HIV-1 BaL); experiment: gp120 ELISA
[7] = target: gp120 JR-CSF (HIV-1 JR-CSF) (UniProt P20871); experiment: gp120 ELISA
[8] = target: HIV-1 BaL envelope (Env) on pseudovirus (HIV-1 BaL); experiment: cell-based or functional assay
[9] = target: HIV-1 JR-CSF envelope (Env) on pseudovirus (HIV-1 JR-CSF) (UniProt P20871); experiment: cell-based or functional assay

Row | Compound | Fluorescence signal intensity ConA [1] | Fluorescence signal intensity 2G12 [2] | Fluorescence signal intensity 128 [3] | Fluorescence signal intensity 127 [4] | fold change in gp120 binding (EC50 variant/EC50 WT) [5] | fold change in gp120 binding (EC50 variant/EC50 WT) [6] | fold change in gp120 binding (EC50 variant/EC50 WT) [7] | Fold change in neutralization (IC50 variant/IC50 WT antibody) [8] | Fold change in neutralization (IC50 variant/IC50 WT antibody) [9]
1 | CCCCCCCCCCCCCCCCOCC(COP(=O)(O)OCCNCC(NC(C)=O)C(O)C(OC1OC(CO)C(OC2OC(COC3OC(COC4OC(CO)C(O)C(O)C4O)C(O)C(OC4OC(CO)C(O)C(O)C4O)C3O)C(O)C(O)C2O)C(O)C1NC(C)=O)C(O)CO)OCCCCCCCCCCCCCCCC (stereo not shown) [Man4bGN2-DH] | 16,615 | — (Signal less than 1) | — (Signal less than 1) | — (Signal less than 1) |  |  |  |  | 
2 | CCCCCCCCCCCCCCCCOCC(COP(=O)(O)OCCNCC(O)C(OC1OC(CO)C(O)C(O)C1O)C(O)C(O)COC1OC(COC2OC(CO)C(O)C(O)C2O)C(O)C(OC2OC(CO)C(O)C(O)C2O)C1O)OCCCCCCCCCCCCCCCC (stereo not drawn) [Man5(α3,α6)-DH] | 15,291 | 34 | — (Signal less than 1) | — (Signal less than 1) |  |  |  |  | 
3 | CCCCCCCCCCCCCCCCOCC(COP(=O)(O)OCCNCC(NC(C)=O)C(O)C(OC1OC(CO)C(OC2OC(COC3OC(COC4OC(CO)C(O)C(O)C4O)C(O)C(OC4OC(CO)C(O)C(O)C4O)C3O)C(O)C(OC3OC(CO)C(O)C(O)C3O)C2O)C(O)C1NC(C)=O)C(O)CO)OCCCCCCCCCCCCCCCC (stereo not shown) [Man5GN2-DH] | 16,390 | — (Signal less than 1) | — (Signal less than 1) | — (Signal less than 1) |  |  |  |  | 
4 | CCCCCCCCCCCCCCCCOCC(COP(=O)(O)OCCNCC(NC(C)=O)C(O)C(OC1OC(CO)C(OC2OC(COC3OC(COC4OC(CO)C(O)C(O)C4O)C(O)C(OC4OC(CO)C(O)C(O)C4O)C3O)C(O)C(OC3OC(CO)C(O)C(O)C3OC3OC(CO)C(O)C(O)C3O)C2O)C(O)C1NC(C)=O)C(O)CO)OCCCCCCCCCCCCCCCC (stereo not shown) [Man6GN2-DH] | 19,006 | 49 | — (Signal less than 1) | — (Signal less than 1) |  |  |  |  | 
5 | CCCCCCCCCCCCCCCCOCC(COP(=O)(O)OCCNCC(NC(C)=O)C(O)C(OC1OC(CO)C(OC2OC(COC3OC(COC4OC(CO)C(O)C(O)C4OC4OC(CO)C(O)C(O)C4O)C(O)C(OC4OC(CO)C(O)C(O)C4OC4OC(CO)C(O)C(O)C4O)C3O)C(O)C(OC3OC(CO)C(O)C(O)C3OC3OC(CO)C(O)C(O)C3OC3OC(CO)C(O)C(O)C3O)C2O)C(O)C1NC(C)=O)C(O)CO)OCCCCCCCCCCCCCCCC (stereo not shown) [Man9GN2-DH] | 21,359 | 11,717 | 26,071 | 24,209 |  |  |  |  | 
6 | Glcα-6Glcα-6Glcα-6Glcα-6Glcα-6Glc-AO [Dextran-6-AO] | 1,138 | — (Signal less than 1) | — (Signal less than 1) | — (Signal less than 1) |  |  |  |  | 
7 | PGT 128 IgG variant HC A30S (antibody) |  |  |  |  | 0.7 fold | 0.6 fold | 0.8 fold | 1.4 fold | 0.9 fold
8 | PGT 128 IgG variant HC A31S (antibody) |  |  |  |  | 1.1 fold | 0.9 fold | 0.8 fold | 1.2 fold | 1.1 fold
9 | PGT 128 IgG variant HC D27A (antibody) |  |  |  |  | 1 fold | 1.1 fold | 1.1 fold | 1.6 fold | 0.9 fold
10 | PGT 128 IgG variant HC L100A (antibody) |  |  |  |  |  | 1.3 fold | 1.7 fold | 2 fold | 0.8 fold
